Several values for one entry are separate records, joined by “and”; a condition that tells them apart may be missing. Identical values can stand only once.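 Compound exposure: 48 hours, 5 concentrations, 96-well plates. Here, GI50 denotes the concentration required for 50% inhibition of growth. TGI: concentration producing complete growth inhibition.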
Columns and labels:
[1] = test system: P388/ADR leukemia; test: NCI tumour cell line growth inhibition, 48 h
[2] = test system: P388 leukemia; test: NCI tumour cell line growth inhibition, 48 h

Question: Which results are given for `CSC1SCC2C(=O)N(C)C(C(C)C)C(=O)OCC(NC(=O)c3cnc4ccccc4n3)C(=O)NC(C)C(=O)N(C)C1C(=O)N(C)C(C(C)C)C(=O)OCC(NC(=O)c1cnc3ccccc3n1)C(=O)NC(C)C(=O)N2C` (stereo not drawn)?
Answer: GI50 [1]: 7.5 nM; TGI [1]: 49 nM and 34.8 nM; GI50 [2]: 0.00499 nM

Reference: PubChem BioAssay (NCI)
